From patent US20240124504A1, “AROMATIC HETEROCYCLIC COMPOUND, AND PHARMACEUTICAL COMPOSITION AND APPLICATION THEREOF” (GT APEIRON THERAPEUTICS LIMITED, priority 2020, published 2024) come the findings set out here.

One test concerns the target CDK2/cyclinE1 complex (Homo sapiens, UniProt P24941). Nature of the test: In-vitro enzymatic inhibitory activity testing, CDK2 inhibition assay (Caliper EZ Reader II). Format: biochemical. The note with it: CDK2/cyclinE1 0.5 nM, 180 min at 27° C. As for the experimental part: CDK12/CyclinK was diluted in an assay buffer (80 mM MES PH 6.5, 0.01% Tween 20, 50 ug/mL BSA, 10 mM MgCl2) to afford a corresponding enzyme solution with the 2.4 concentration. […] A CDK9/cyclinT1 complex (8 nM) and a “5-FAM-CDK9tide” peptide substrate (2 IM, synthetic fluorophore-labeled peptide with the following sequence: 5-FAM-GSRTPMY-NH2, wherein 5-FAM was as defined above and NH2 represented C-terminal amide) were used for a CDK9 inhibition assay. […] A CDK2/cyclinE1 complex (0.5 nM) and “5-FAM-CDK7tide” (2 μM) as defined above were used for CDK2 inhibition assay.
(§1) A reaction mixture was analyzed on Caliper EZ Reader II by electrophoretic separation of a fluorogenic substrate and a phosphorylated product. Data were calculated by using GraphPad Prism version 6.0, and IC50 values were adjusted and obtained by using a nonlinear regression model of a dose response curve.

The target in test [1] is CDK7/cyclinH/MAT1 complex (Homo sapiens, UniProt P50613). The test is described as follows: In-vitro enzymatic inhibitory activity testing, CDK7 inhibition assay (Caliper EZ Reader II). Format: biochemical. Particulars: CDK7/cyclinH/MAT1 6 nM, 180 min at 27° C. On the procedure: (§2) CDK12/CyclinK was diluted in an assay buffer (80 mM MES PH 6.5, 0.01% Tween 20, 50 ug/mL BSA, 10 mM MgCl2) to afford a corresponding enzyme solution with the 2.4 concentration. A compound was dissolved in dimethyl sulfoxide (DMSO) at a concentration of 10 mM. […] 2 ul of a test compound solution was mixed with 5 ul of the enzyme solution; after incubation for 10 min, 5 ul of the polypeptide substrate and ATP mixed solution was added; incubation was carried out for 180 min at 27° C.; and then, the reaction was terminated by adding 4 uL of EDTA with a concentration of 120 mM to each sample. […] A CDK9/cyclinT1 complex (8 nM) and a “5-FAM-CDK9tide” peptide substrate (2 IM, synthetic fluorophore-labeled peptide with the following sequence: 5-FAM-GSRTPMY-NH2, wherein 5-FAM was as defined above and NH2 represented C-terminal amide) were used for a CDK9 inhibition assay. […] A CDK2/cyclinE1 complex (0.5 nM) and “5-FAM-CDK7tide” (2 μM) as defined above were used for CDK2 inhibition assay.
as §1

For a further test, the target named is CDK9/cyclinT1 complex (Homo sapiens, UniProt P50750). Nature of the test: In-vitro enzymatic inhibitory activity testing, CDK9 inhibition assay (Caliper EZ Reader II). Format: biochemical. The note with it: CDK9/cyclinT1 8 nM, 180 min at 27° C. On the procedure:
as §2, §1

Test [2] has as its target T1, CDK12 (aa686-1082)/cyclinK complex (Homo sapiens, UniProt Q9NYV4).
T1 construct: A CDK12 (aa686-1082)/cyclinK complex (50 nM)
Nature of the test: In-vitro enzymatic inhibitory activity testing, CDK12 inhibition assay (Caliper EZ Reader II). Format: biochemical. Particulars: CDK12/cyclinK 50 nM, 180 min at 27° C.; read-out: CDK12 IC50. On the procedure:
An assay was carried out in a U-bottom 384-well plate (coming, 4512#), and the reaction temperature was 27° C. CDK7/CyclinH was diluted in an assay buffer (20 mM MES PH 6.75, 0.01% Tween 20, 50 ug/mL BSA, 6 mM MgCl2) to afford a corresponding enzyme solution with the 2.4× concentration. CDK2/CyclinE1 was diluted in an assay buffer (20 mM MES PH 6.75, 0.01% Tween 20, 50 ug/mL BSA, 6 mM MgCl2) to afford a corresponding enzyme solution with the 2.4× concentration. CDK9/CyclinT1 was diluted in an assay buffer (20 mM MES PH 6.75, 0.01% Tween 20, 50 ug/mL BSA, 10 mM MgCl2) to afford a corresponding enzyme solution with the 2.4× concentration. CDK12/CyclinK was diluted in an assay buffer (80 mM MES PH 6.5, 0.01% Tween 20, 50 ug/mL BSA, 10 mM MgCl2) to afford a corresponding enzyme solution with the 2.4 concentration. A compound was dissolved in dimethyl sulfoxide (DMSO) at a concentration of 10 mM. During use, the compound was diluted with DMSO into 10 concentration gradients from 25 nM to 500 uM, and respectively diluted by 8.3 folds in the assay buffer to afford a compound solution with a 6× concentration. A polypeptide substrate and ATP were diluted in the assay buffer to afford a polypeptide substrate and ATP mixed solution with a 2.4× concentration. 2 ul of a test compound solution was mixed with 5 ul of the enzyme solution; after incubation for 10 min, 5 ul of the polypeptide substrate and ATP mixed solution was added; incubation was carried out for 180 min at 27° C.; and then, the reaction was terminated by adding 4 uL of EDTA with a concentration of 120 mM to each sample. […]. Specifically, a CDK7/cyclinH/MAT1 complex (6 nM) and a “5-FAMCD K 7 tide” peptide substrate (2 μM, synthetic fluorophore-labeled peptide with the following sequence: 5-FAM-[…], wherein “5-FAM” refers to 5-carboxyfluorescein) were used for a CDK7 inhibition assay. A CDK9/cyclinT1 complex (8 nM) and a “5-FAM-CDK9tide” peptide substrate (2 IM, synthetic fluorophore-labeled peptide with the following sequence: 5-FAM-GSRTPMY-NH2, wherein 5-FAM was as defined above and NH2 represented C-terminal amide) were used for a CDK9 inhibition assay. A CDK12 (aa686-1082)/cyclinK complex (50 nM) and “5-FAM-CDK9tide” (2 μM) as defined above were used for a CDK12 inhibition assay. A CDK2/cyclinE1 complex (0.5 nM) and “5-FAM-CDK7tide” (2 μM) as defined above were used for CDK2 inhibition assay.
as §1

The test system of the next test is ovarian cancer A2780. The test is described as follows: Cell biological activity detection (CyQuant, 72 hours), A2780. Particulars: A2780 cells, incubation for 72 hours. Format: cell-based, human. As for the experimental part:
(§3) A2780 and HCC70 cells were subjected to trypsin digestion treatment, and cell suspensions were respectively transferred to 15 mL centrifuge tubes and centrifuged for 5 min at […]) rpm; supernatant was discarded, and resuspension was carried out in a fresh medium (RPMI 1640+10% FBS), after counting, cells were seeded into a 384-well plate at 2000/well (50 μL of 1640+10% FBS medium was added to the 2nd column and the 23rd column of the 384-well plate, and 50 μL of DPBS was added to the surrounding wells). Incubation was carried out overnight in an incubator (37° C., 5% CO2).
(§4) The compound was added to the well plates the next day. The compound had the highest concentration of 10 μM and was diluted at 1:4, and there were a total of 9 concentrations; and a positive compound Paclitaxel had the highest concentration of 1 μM and was diluted at 1:3, and there were a total of 9 concentrations. The DMSO content in each well was unified to 0.2%. The cell plates were centrifuged for 30 seconds at 800 rpm and placed in an incubator (37° C., 5% CO2) for incubation for 72 hours. On the fourth day, a Cyquant reagent (3×) was formulated according to kit instructions, and formulation was carried out for each 384-well plate according to the following proportions: DPBS 11.568 mL, CyQuant®? Direct nucleic acid stain 72 μL, and CyQuant® Direct background suppressor 360 μL. After uniform mixing, the reagent was placed at room temperature for further use. The cell plates were taken out and equilibrated for 30 min at room temperature, and 25 μL of the Cyquant reagent (3×) per well was dispensed into the cells of the 384-well plates by Multi-drop, and incubation was carried out for more than 60 minutes at 37° C. Acumen plate reading (Acumen setting: an excitation wavelength of 488 nm). IC50 results were analyzed by XLFIT5 from IDBS Company.

The test system of test [3] is human breast cancer cells HCC70. Nature of the test: Cell biological activity detection (CyQuant, 72 hours), HCC70. Format: cell-based. The note with it: Homo sapiens, HCC70, 72 h, incubation for 72 hours. On the procedure:
as §3, §4

T1 sequence (Q9NYV4 686-1082, species assumed): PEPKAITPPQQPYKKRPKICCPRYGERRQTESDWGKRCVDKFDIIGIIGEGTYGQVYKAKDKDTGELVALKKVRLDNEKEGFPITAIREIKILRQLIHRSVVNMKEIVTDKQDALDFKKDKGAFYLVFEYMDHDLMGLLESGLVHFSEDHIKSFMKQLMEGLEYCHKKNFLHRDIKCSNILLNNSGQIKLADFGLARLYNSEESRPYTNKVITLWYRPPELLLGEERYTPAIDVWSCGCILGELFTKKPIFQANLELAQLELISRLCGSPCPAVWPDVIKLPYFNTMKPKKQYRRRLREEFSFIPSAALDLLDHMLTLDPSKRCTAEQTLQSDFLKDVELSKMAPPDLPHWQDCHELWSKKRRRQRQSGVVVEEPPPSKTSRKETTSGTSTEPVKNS
T1 sequence (O75909 whole entry partner, species assumed, the tested form may be a part): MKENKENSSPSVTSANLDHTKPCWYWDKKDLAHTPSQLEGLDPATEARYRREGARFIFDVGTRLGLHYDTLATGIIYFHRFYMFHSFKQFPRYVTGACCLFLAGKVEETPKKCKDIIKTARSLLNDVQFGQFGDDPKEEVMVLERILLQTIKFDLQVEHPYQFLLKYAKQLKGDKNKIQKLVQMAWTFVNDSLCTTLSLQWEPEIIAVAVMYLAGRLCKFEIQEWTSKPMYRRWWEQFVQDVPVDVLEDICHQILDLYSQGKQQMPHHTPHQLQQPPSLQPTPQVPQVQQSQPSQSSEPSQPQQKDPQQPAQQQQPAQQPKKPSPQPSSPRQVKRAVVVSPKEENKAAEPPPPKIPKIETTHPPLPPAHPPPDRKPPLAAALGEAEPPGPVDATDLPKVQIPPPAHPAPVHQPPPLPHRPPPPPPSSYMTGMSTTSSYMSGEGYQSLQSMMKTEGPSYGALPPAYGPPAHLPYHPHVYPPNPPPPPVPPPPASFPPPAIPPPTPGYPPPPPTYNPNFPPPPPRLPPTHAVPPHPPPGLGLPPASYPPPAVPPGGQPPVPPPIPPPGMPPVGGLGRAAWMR
Chain of CDK7/cyclinH/MAT1 complex (P50613 whole entry, species assumed): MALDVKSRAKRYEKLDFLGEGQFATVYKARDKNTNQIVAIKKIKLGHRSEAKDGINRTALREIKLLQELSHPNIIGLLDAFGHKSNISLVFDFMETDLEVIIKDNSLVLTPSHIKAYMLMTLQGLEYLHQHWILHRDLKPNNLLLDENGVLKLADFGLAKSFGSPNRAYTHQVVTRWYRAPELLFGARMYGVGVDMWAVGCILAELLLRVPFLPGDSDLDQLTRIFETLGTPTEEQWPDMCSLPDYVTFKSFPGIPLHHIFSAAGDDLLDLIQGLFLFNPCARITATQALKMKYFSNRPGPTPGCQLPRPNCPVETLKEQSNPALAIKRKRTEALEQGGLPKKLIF
Chain of CDK7/cyclinH/MAT1 complex (P51946 whole entry partner, species assumed): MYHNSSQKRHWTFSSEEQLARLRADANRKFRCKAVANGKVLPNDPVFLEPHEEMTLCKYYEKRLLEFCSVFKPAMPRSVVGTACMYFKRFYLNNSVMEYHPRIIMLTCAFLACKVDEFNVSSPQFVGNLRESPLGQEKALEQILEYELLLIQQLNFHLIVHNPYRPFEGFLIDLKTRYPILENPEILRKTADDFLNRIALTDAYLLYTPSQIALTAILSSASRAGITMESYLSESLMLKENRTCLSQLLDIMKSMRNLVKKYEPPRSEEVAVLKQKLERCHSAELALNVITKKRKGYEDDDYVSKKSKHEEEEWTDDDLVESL
Chain of CDK7/cyclinH/MAT1 complex (P51948 whole entry partner, species assumed): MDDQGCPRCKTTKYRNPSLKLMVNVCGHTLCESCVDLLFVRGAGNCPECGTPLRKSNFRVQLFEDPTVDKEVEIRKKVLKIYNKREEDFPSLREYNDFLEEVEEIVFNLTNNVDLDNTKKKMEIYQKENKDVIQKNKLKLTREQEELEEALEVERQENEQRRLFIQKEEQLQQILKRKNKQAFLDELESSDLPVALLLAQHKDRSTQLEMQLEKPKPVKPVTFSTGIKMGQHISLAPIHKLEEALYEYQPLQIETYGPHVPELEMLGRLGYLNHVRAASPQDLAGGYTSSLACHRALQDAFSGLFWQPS
Chain of CDK9/cyclinT1 complex (P50750 whole entry, species assumed): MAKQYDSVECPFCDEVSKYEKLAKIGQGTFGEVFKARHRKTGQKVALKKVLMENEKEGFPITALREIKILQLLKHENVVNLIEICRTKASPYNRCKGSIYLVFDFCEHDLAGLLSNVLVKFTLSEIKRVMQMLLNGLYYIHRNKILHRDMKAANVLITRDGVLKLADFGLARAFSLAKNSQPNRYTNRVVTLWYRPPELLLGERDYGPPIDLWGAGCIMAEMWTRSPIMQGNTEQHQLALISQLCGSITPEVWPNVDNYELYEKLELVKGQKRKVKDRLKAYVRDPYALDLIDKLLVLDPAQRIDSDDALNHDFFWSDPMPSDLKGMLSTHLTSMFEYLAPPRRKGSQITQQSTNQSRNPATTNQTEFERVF
Chain of CDK9/cyclinT1 complex (O60563 whole entry partner, species assumed): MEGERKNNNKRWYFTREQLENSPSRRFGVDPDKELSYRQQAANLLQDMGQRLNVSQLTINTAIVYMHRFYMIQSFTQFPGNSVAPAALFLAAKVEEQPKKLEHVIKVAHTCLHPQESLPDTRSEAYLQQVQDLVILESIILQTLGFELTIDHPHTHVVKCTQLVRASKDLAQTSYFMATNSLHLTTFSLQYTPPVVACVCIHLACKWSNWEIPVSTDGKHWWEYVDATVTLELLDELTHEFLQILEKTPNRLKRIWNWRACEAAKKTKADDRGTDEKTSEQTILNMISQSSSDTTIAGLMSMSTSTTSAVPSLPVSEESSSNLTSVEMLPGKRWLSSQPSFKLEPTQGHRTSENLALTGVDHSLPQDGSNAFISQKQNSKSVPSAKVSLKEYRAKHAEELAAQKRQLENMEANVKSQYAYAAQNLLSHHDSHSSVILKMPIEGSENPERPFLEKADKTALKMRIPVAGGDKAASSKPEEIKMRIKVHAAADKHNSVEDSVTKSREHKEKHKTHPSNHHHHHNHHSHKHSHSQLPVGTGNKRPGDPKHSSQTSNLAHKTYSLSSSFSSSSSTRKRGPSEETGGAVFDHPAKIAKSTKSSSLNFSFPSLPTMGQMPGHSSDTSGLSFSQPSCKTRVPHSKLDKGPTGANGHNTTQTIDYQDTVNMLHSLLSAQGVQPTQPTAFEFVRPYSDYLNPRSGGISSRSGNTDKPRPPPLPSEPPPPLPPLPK

Broadly, the IC50 is the concentration needed to halve the response being measured. In the case of `CP(C)(=O)c1cccc2c(-c3nc(NCC(O)C4CCC4)ncc3C(F)(F)F)c[nH]c12` (single isomer, unassigned) [Compound 139], the IC50 against CDK2/cyclinE1 complex is 5 to 50 µM; in test [1], 0.02 to 0.2 µM; at CDK9/cyclinT1 complex, over 50 µM; in test [2], over 50 µM.

As for `N#Cc1ccc2c(-c3nc(N[C@@H]4CCC45CNC5)ncc3C(F)(F)F)c[nH]c2n1` [Compound 61, (R)-3-(2-((2-azaspiro[3.3]heptan-5-yl)amino)-5-(trifluoromethyl)pyrimidin-4-yl)-1H-pyrrolo[2,3-b]pyridine-6-carbonitrile], the IC50 at CDK2/cyclinE1 complex is 5 to 50 µM; in test [1], under 0.02 µM; in the test with ovarian cancer A2780 (Homo sapiens, A2780, 72 h), 0.2 to 5 µM; against CDK9/cyclinT1 complex, 5 to 50 µM; in test [2], 5 to 50 µM.

`COc1cc(P(C)(C)=O)c2[nH]cc(-c3nc(N[C@@H](C)CO)ncc3C(F)(F)F)c2c1` [Compound 104]: the IC50 was 0.2 to 5 µM against CDK2/cyclinE1 complex, 0.02 to 0.2 µM in test [1], over 50 µM against CDK9/cyclinT1 complex and over 50 µM in test [2].

Consider `Cc1noc(C)c1-c1ccc2c(-c3nc(N[C@@H]4CCC45CNC5)ncc3C(F)(F)F)c[nH]c2n1` [Compound 36, (R)—N-(4-(6-(3,5-dimethylisoxazol-4-yl)-1H-pyrrolo[2,3-b]pyridin-3-yl)-5-(trifluoromethyl)pyrimidin-2-yl)-2-azaspiro[3.3]heptan-5-amine], for which the IC50 is 5 to 50 µM at CDK2/cyclinE1 complex; under 0.02 µM in test [1]; under 0.02 µM in the test on ovarian cancer A2780 (Homo sapiens, A2780, 72 h); 5 to 50 µM at CDK9/cyclinT1 complex; 0.2 to 5 µM in test [2].

Turning to `FC(F)(F)c1cnc(NC2CCC3(CCNCC3)C2)nc1-c1c[nH]c2nc(N3CCOCC3)ccc12` (stereo not shown) [Compound 42, N-(4-(6-morpholinyl-1H-pyrrolo[2,3-b]pyridin-3-yl)-5-(trifluoromethyl)pyrimidin-2-yl)-8-azaspiro[4.5]decan-2-amine], the IC50 on CDK2/cyclinE1 complex lay within 5 to 50 µM; in test [1], 0.02 to 0.2 µM; against CDK9/cyclinT1 complex, 5 to 50 µM; in test [2] it was 5 to 50 µM.

For the molecule `CP(C)(=O)c1cccc2c(-c3nc(N[C@@H](CO)C4CCC4)ncc3C(F)(F)F)c[nH]c12` [Compound 113, (R)-(3-(2-((1-cyclobutyl-2-hydroxyethyl)amino)-5-(trifluoromethyl)pyrimidin-4-yl)-1H-indole-7-yl)dimethylphosphine oxide], the IC50 was 5 to 50 µM on CDK2/cyclinE1 complex, 0.02 to 0.2 µM in test [1], over 50 µM at CDK9/cyclinT1 complex and over 50 µM in test [2].

Take `CN(C)CC1CCCC1Nc1ncc(C(F)(F)F)c(-c2c[nH]c3c(P(C)(C)=O)cccc23)n1` (single isomer, unassigned) [Compound 136]: the IC50 is over 50 µM on CDK2/cyclinE1 complex, 0.02 to 0.2 µM in test [1], over 50 µM at CDK9/cyclinT1 complex and over 50 µM in test [2].

Regarding `COc1ccc2c(-c3nc(N[C@@H](C)CO)ncc3C(F)(F)F)c[nH]c2c1P(C)(C)=O` [Compound 106, (S)-(3-(2-((1-hydroxypropan-2-yl)amino)-5-(trifluoromethyl)pyrimidin-4-yl)-6-methoxy-1H-indole-7-yl)dimethylphosphine oxide], the IC50 was in the range of 0.2 to 5 µM against CDK2/cyclinE1 complex, 0.02 to 0.2 µM in test [1], 5 to 50 µM against CDK9/cyclinT1 complex and 5 to 50 µM in test [2].

`FC(F)(F)c1cnc(NC2CCC3CNCC32)nc1-c1c[nH]c2nc(N3CCOCC3)ccc12` (single isomer, unassigned) [Compound 56]: the IC50 is over 50 µM on CDK2/cyclinE1 complex; 0.2 to 5 µM in test [1]; 5 to 50 µM in the test with ovarian cancer A2780; over 50 µM against CDK9/cyclinT1 complex; over 50 µM in test [2].

Consider `CP(C)(=O)c1cccc2c(-c3nc(NCC(O)C4CCC4)ncc3C(F)(F)F)c[nH]c12` (single isomer, unassigned) [Compound 140], for which the IC50 was 5 to 50 µM against CDK2/cyclinE1 complex, 0.02 to 0.2 µM in test [1], over 50 µM against CDK9/cyclinT1 complex and over 50 µM in test [2].

As to `CC(C)(C)[C@H](CO)Nc1ncc(C(F)(F)F)c(-c2c[nH]c3c(P(C)(C)=O)cccc23)n1` [Compound 176], the IC50 in test [3] was under 0.02 µM.

On to `CC1([C@@H](CO)Nc2ncc(C(F)(F)F)c(-c3c[nH]c4c(P(C)(C)=O)cccc34)n2)CC1` [Compound 112, (S)-(3-(2-((2-hydroxy-1-(1-methylcyclopropyl)ethyl)amino)-5-(trifluoromethyl)pyrimidin-4-yl)-1H-indole-7-yl)dimethylphosphine oxide], for which the IC50 at CDK2/cyclinE1 complex is 5 to 50 µM; in test [1], 0.02 to 0.2 µM; against CDK9/cyclinT1 complex, over 50 µM; in test [2], over 50 µM.

As for `FC(F)(F)c1cnc(NC2CCCC3(CCCN3)C2)nc1-c1c[nH]c2nc(N3CCOCC3)ccc12` (stereo not shown) [Compound 38, N-(4-(6-morpholinyl-1H-pyrrolo[2,3-b]pyridin-3-yl)-5-(trifluoromethyl)pyrimidin-2-yl)-1-azaspiro[4.5]decan-7-amine], the IC50 on CDK2/cyclinE1 complex was in the range of 5 to 50 µM; in test [1], 0.02 to 0.2 µM; at CDK9/cyclinT1 complex, 5 to 50 µM; in test [2], 5 to 50 µM.
